Laboratory results reported in patent US20220143072A1, “Chitosan nitrate for use as a nitric oxide donor (NO donor)” (NO-ceuticals B.V., priority 2019, published 2022).

Test: Fasting salivary nitrate and nitrite after oral nitrate (Quantofix test strips)
Parameters: species or system human
Conditions: in vivo
Procedure: Measuring the fasting value of salivary nitrate and nitrite does give a reflection of the plasma value of nitrate and nitrite. The patient took one capsule chitosan nitrate, containing 120 mg NO3− anion, at 11:00 pm. […] An equivalent amount of 120 mg NO3− was taken at 11:00 pm. […] Oligo chitosan is absorbed before reaching the colon and NO3− will then also be absorbed. Quantofix test strips nitrate and nitrite from Macherey-Nagel company, Germany, were used for measurement of NO3− and NO2−. These test strips allow semiquantitative measurement. Reading of the test strips was performed with a Quantofix Relax reader. Other tests were done based on the ingestion of the daily dose in the morning and by measuring the salivary nitrate and salivary nitrite 24 hours later. Two capsules of chitosan nitrate contained an equivalent amount of 240 mg NO3−. Ten measurements were done for both chitosan nitrate and KNO3 salt.

nitrite values in saliva relative to KNO3: three times higher
Substance: chitosan nitrate
